Where a name gives a salt, the structure may show the parent alone.
How the values were obtained:
[1] = target: T1, hD2 recombinant receptor (human dopamine receptor type 2, long variant, CHO-Gα16-hD2L cells) (Homo sapiens (Human), UniProt P14416); assay: cell-based; conditions: D2 fpKi, functional pKi; antagonism of dopamine EC80 calcium response (FLIPR)
[2] = target: T2, hD2 recombinant receptor (human dopamine receptor type 2, long variant, CHO-Gα16-hD2L membranes) (Homo sapiens (Human), UniProt P14416); assay: biochemical
[3] = target: T1, hD2 recombinant receptor (human dopamine receptor type 2, long variant, CHO-Gα16-hD2L cells); conditions: functional pKi; antagonism of dopamine EC80 calcium response (FLIPR)
[4] = target: T2, hD2 recombinant receptor (human dopamine receptor type 2, long variant, CHO-Gα16-hD2L membranes); conditions: displacement of 0.08 nM [3H]-Spiperone

SMILES | Ki [1] [nM] | Ki [2] [nM] | also measured
Cn1c(SCCCN2CC[C@]3(C[C@@H]3c3ccc(C(F)(F)F)cc3)C2)nnc1N1CCOCC1 (single isomer, unassigned) [Example 118, hydrochloride] | 41.7 | 251 | –
Cc1cccnc1-c1nnc(SCCCN2CC[C@]3(C[C@@H]3c3ccc(C(F)(F)F)cc3)C2)n1C (single isomer, unassigned) [Example 170, dihydrochloride] | – | 1410 | –
Cn1c(SCCCN2CC[C@]3(C[C@@H]3c3ccc(C(F)(F)F)cc3)C2)nnc1-c1ccnc(C#N)c1 (single isomer, unassigned) [Example 178] | – | 794 | –
Cn1c(SCCCN2CC[C@]3(C[C@@H]3c3ccc(C(F)(F)F)cc3F)C2)nnc1-c1ccc(C(N)=O)nc1 (single isomer, unassigned) [Example 185] | – | 1230 | –
Cn1c(SCCCN2CC[C@@]3(C[C@H]3c3ccc(C(F)(F)F)cc3F)C2)nnc1-c1ccc(C(N)=O)nc1 (single isomer, unassigned) [Example 186] | – | 4900 | –
Cn1c(SCCCN2CC[C@]3(C[C@@H]3c3ccc(C(F)(F)F)cc3)C2)nnc1-c1ccc(C(N)=O)cn1 (single isomer, unassigned) [Example 189, dihydrochloride] | – | 437 | –
Cn1c(SCCCN2CC[C@]3(C[C@@H]3c3ccc(C(F)(F)F)cc3F)C2)nnc1-c1ccc(C(N)=O)cn1 (single isomer, unassigned) [Example 190] | – | 275 | –
Cn1c(SCCCN2CC[C@]3(C[C@@H]3c3ccc(C(F)(F)F)cc3)C2)nnc1-c1ccnc(C(N)=O)c1 (single isomer, unassigned) [Example 191] | – | 513 | –
Cn1c(SCCCN2CC[C@]3(C[C@@H]3c3ccc(C(F)(F)F)cc3)C2)nnc1-c1cncc(C(N)=O)c1 (single isomer, unassigned) [Example 192] | – | 437 | –
Cn1c(SCCCN2CC[C@]3(C[C@@H]3c3ccc(C(F)(F)F)cc3)C2)nnc1-c1cccc(C(N)=O)n1 (single isomer, unassigned) [Example 193] | – | 437 | –
Cc1nccnc1-c1nnc(SCCCN2CC[C@]3(C[C@@H]3c3ccc(C(F)(F)F)cc3)C2)n1C (single isomer, unassigned) [Example 227, hydrochloride] | – | 575 | –
Cn1c(SCCCN2CC[C@]3(C[C@@H]3c3ccc(C(F)(F)F)cc3)C2)nnc1-c1cnc(-c2cccnc2)o1 (single isomer, unassigned) [Example 263] | – | 589 | –
Cn1c(SCCCN2CC[C@]3(C[C@@H]3c3ccc(C(F)(F)F)cc3)C2)nnc1-c1ccc(Oc2ccccc2)nc1 (single isomer, unassigned) [Example 265] | – | 589 | –
Cn1c(OCCCN2CC[C@]3(C[C@H]3c3ccc(C(F)(F)F)cc3)C2)nnc1C1CCOCC1 (single isomer, unassigned) [Example 304, (1S,3S or 1R,3R)-5-(3-{[4-methyl-5-(oxan-4-yl)-4H-1,2,4-triazol-3-yl]oxy}propyl)-1-[4-(trifluoromethyl)phenyl]-5-azaspiro[2.4]heptane] | – | – | D2 fpKi [3]: <5
Cn1c(OCCCN2CC[C@@]3(C[C@@H]3c3ccc(C(F)(F)F)cc3)C2)nnc1C1CCOCC1 (single isomer, unassigned) [Example 305, (1R,3R or 1S,3S)-5-(3-{[4-methyl-5-(oxan-4-yl)-4H-1,2,4-triazol-3-yl]oxy}-propyl)-1-[4-(trifluoromethyl)phenyl]-5-azaspiro[2.4]heptane] | – | – | D2 fpKi [3]: <5
Cc1ncoc1-c1nnc(SCCCN2CCC[C@]3(C[C@H]3c3ccc(C(F)(F)F)cc3)C2)n1C (single isomer, unassigned) [Example 312, (1S,3R or 1R,3S)-5-(3-{[4-methyl-5-(4-methyl-1,3-oxazol-5-yl)-4H-1,2,4-triazol-3-yl]sulfanyl}propyl)-1-[4-(trifluoromethyl)phenyl]-5-azaspiro[2.5]octane] | – | – | D2 fpKi [3]: 8.26
Cn1c(SCCCN2CC[C@]3(CC3c3ccccc3)C2)nnc1C1CCOCC1 (stereo partly drawn) [Example 80, (1R,3S/1S,3R)-5-(3-{[4-methyl-5-(oxan-4-yl)-4H-1,2,4-triazol-3-yl]-sulfanyl}propyl)-1-phenyl-5-azaspiro[2.4]heptane] | > 10000 | – | –
Cn1c(SCCCN2CC[C@]3(CC3c3ccc(C(F)(F)F)nc3)C2)nnc1C1CCOCC1 (stereo partly drawn) [Example 84, (1R,3S/1S,3R)-5-(3-{[4-methyl-5-(oxan-4-yl)-4H-1,2,4-triazol-3-yl]sulfanyl}propyl)-1-[6-(trifluoromethyl)pyridin-3-yl]-5-azaspiro[2.4]heptane] | > 10000 | – | –
CC(=O)N1CCC(c2nnc(SCCCN3CC[C@]4(C[C@@H]4c4ccc(C(F)(F)F)cc4)C3)n2C)CC1 [Example 99, 1-{4-[4-methyl-5-({3-[(1R,3S/1S,R3)-1-[4-(trifluoromethyl)phenyl]-5-azaspiro[2.4]heptan-5-yl]propyl}sulfanyl)-4H-1,2,4-triazol-3-yl]piperidin-1-yl}ethan-1-one] | 2240 | – | –
Cn1c(SCCCN2CC[C@]3(CC3c3ccc(C(F)(F)F)cc3F)C2)nnc1-c1ccncn1 (stereo partly drawn) [Example 213, (1S,3S/1R,3R)-1-[2-fluoro-4-(trifluoromethyl)phenyl]-5-(3-{[4-methyl-5-(pyrimidin-4-yl)-4H-1,2,4-triazol-3-yl]sulfanyl}propyl)-5-azaspiro[2.4]heptane] | 81.3 | – | –
Cn1c(SCCCN2CC[C@]3(CC3c3ccc(C(F)(F)F)cc3F)C2)nnc1-c1cnccn1 (stereo partly drawn) [Example 221, (1S,3S/1R,3R)-1-[2-fluoro-4-(trifluoromethyl)phenyl]-5-(3-{[4-methyl-5-(pyrazin-2-yl)-4H-1,2,4-triazol-3-yl]sulfanyl}propyl)-5-azaspiro[2.4]heptane] | 87.1 | – | D2 pKi [4]: 6.37
Cn1c(SCCCN2CC[C@]3(C[C@@H]3c3ccc(C(F)(F)F)cc3)C2)nnc1-c1ccno1 [Example 229, (1R,3S/1S,3R)-5-(3-{[4-methyl-5-(1,2-oxazol-5-yl)-4H-1,2,4-triazol-3-yl]sulfanyl}propyl)-1-[4-(trifluoromethyl)phenyl]-5-azaspiro[2.4]heptane] | 2340 | – | –

More lines, main results first:

Ki [1] [nM] | Ki [2] [nM] | SMILES | also measured
– | 1000 | Cn1c(SCCCN2CC[C@]3(C[C@@H]3c3ccc(C(F)(F)F)cc3)C2)nnc1-c1ccn2cnnc2c1 (single isomer, unassigned) [Example 269] | –
– | 95.5 | Cn1c(SCCCN2CC[C@]3(C[C@@H]3c3ccc(C(F)(F)F)cc3)C2)nnc1-c1ccc2[nH]cnc2n1 (single isomer, unassigned) [Example 272] | –
– | 3160 | Cn1c(SCCCN2CC[C@]3(C[C@@H]3c3ccc(C(F)(F)F)cc3)C2)nnc1-c1ccc(-c2nnn[nH]2)cc1 (single isomer, unassigned) [Example 273] | –
– | 479 | Cc1nc(-c2ccc(-c3nnc(SCCCN4CC[C@]5(C[C@@H]5c5ccc(C(F)(F)F)cc5)C4)n3C)cc2)no1 (single isomer, unassigned) [Example 275] | –
– | 166 | Cn1c(SCCCN2CC[C@]3(C[C@@H]3c3ccc(C(F)(F)F)cc3)C2)nnc1-c1ccc(-n2cnnc2)cc1 (single isomer, unassigned) [Example 276] | –
– | 468 | Cn1c(SCCCN2CC[C@]3(C[C@@H]3c3ccc(C(F)(F)F)cc3)C2)nnc1-c1ccc(CC#N)cc1 (single isomer, unassigned) [Example 286] | –
– | 1150 | Cc1ncoc1-c1nnc(CCCCN2CC[C@]3(C[C@@H]3c3ccc(C(F)(F)F)cc3)C2)n1C (single isomer, unassigned) [Example 302, hydrochloride] | –
1120 | – | Cc1ncoc1-c1nnc(SCCCN2CCC3(CC2)C[C@@H]3c2ccccc2)n1C (single isomer, unassigned) [Example 309, (1S or 1R)-6-(3-{[4-methyl-5-(4-methyl-1,3-oxazol-5-yl)-4H-1,2,4-triazol-3-yl]sulfanyl}propyl)-1-phenyl-6-azaspiro[2.5]octane hydrochloride] | –
2240 | – | Cc1ncoc1-c1nnc(SCCCN2CCC3(CCC3c3ccccc3)C2)n1C (single isomer, unassigned) [Example 321, (1R,4S or 1S,4R or 1S,4S or 1R,4R)-6-(3-{[4-methyl-5-(4-methyl-1,3-oxazol-5-yl)-4H-1,2,4-triazol-3-yl]sulfanyl}propyl)-1-phenyl-6-azaspiro[3.4]octane hydrochloride] | –
> 10000 | – | Cn1c(CCCCN2CC[C@]3(CC3c3ccc(C(F)(F)F)cc3)C2)nnc1C1CCOCC1 (stereo partly drawn) [Example 296, (1S,3S/1R,3R)-5-{4-[4-methyl-5-(oxan-4-yl)-4H-1,2,4-triazol-3-yl]butyl}-1-[4-(trifluoromethyl)phenyl]-5-azaspiro[2.4]heptane] | –
1450 | – | Cc1ncoc1-c1nnc(CCCCN2CC[C@]3(CC3c3ccc(C(F)(F)F)cc3)C2)n1C (stereo partly drawn) [Example 301, (1R,3S/1S,3R)-5-{4-[4-methyl-5-(4-methyl-1,3-oxazol-5-yl)-4H-1,2,4-triazol-3-yl]butyl}-1-[4-(trifluoromethyl)phenyl]-5-azaspiro[2.4]heptane hydrochloride] | –
> 10000 | – | Cn1c(OCCCN2CC[C@]3(C[C@H]3c3ccc(C(F)(F)F)cc3)C2)nnc1C1CCOCC1 [Example 303, (1S,3S/1R,3R)-5-(3-{[4-methyl-5-(oxan-4-yl)-4H-1,2,4-triazol-3-yl]oxy}-propyl)-1-[4-(trifluoromethyl)phenyl]-5-azaspiro[2.4]heptane] | –
> 10000 | – | Cc1ncoc1-c1nnc(SCCCN2CCC[C@]3(C[C@@H]3c3ccc(C(F)(F)F)cc3)C2)n1C [Example 313, (1S,3S/1R,3R)-5-(3-{[4-methyl-5-(4-methyl-1,3-oxazol-5-yl)-4H-1,2,4-triazol-3-yl]sulfanyl}propyl)-1-[4-(trifluoromethyl)phenyl]-5-azaspiro[2.5]octane] | –
